2 molecules from ChEMBL document CHEMBL5584328, “Integrating computational and experimental chemical biology revealed variable anticancer activities of phosphodiesterase isoenzyme 5 inhibitors (PDE5i) in lung cancer” (RSC Med Chem, 2024) can be followed below.

The source made the active and inactive calls. No cut-off for these calls is given here.

Experiment [1] concerns A549. The experiment in a line: Antiproliferative activity against human A549 cells measured after 24 hrs by MTT assay. It is filed as functional, cell-based.
The test system of experiment [2] is A549. Kind of experiment: Antiproliferative activity against human A549 cells measured after 48 hrs by MTT assay. It counts as functional, cell-based. The conditions noted are these: for IC50: A549, 48 h.
Experiment [3] has as its system A549. The experiment in a line: Antiproliferative activity against human A549 cells measured after 72 hrs by MTT assay. It is filed as functional, cell-based. In general terms: Tetrazolium assays rely on reduction of a dye to a coloured formazan, in cell work by metabolically active cells.
Experiment [4] has as its system NCI-H1299. Kind of experiment: Antiproliferative activity against human NCI-H1299 cells measured after 24 hrs by MTT assay. It is filed as functional, cell-based.
For experiment [5], the system named is NCI-H1299. The experiment in a line: Antiproliferative activity against human NCI-H1299 cells measured after 48 hrs by MTT assay. It is filed as functional, cell-based. The note with it: for IC50: NCI-H1299, 48 h.
For experiment [6], the system named is NCI-H1299. Kind of experiment: Antiproliferative activity against human NCI-H1299 cells measured after 72 hrs by MTT assay. It counts as functional, cell-based.
For experiment [7], the system named is NCI-H661. Kind of experiment: Antiproliferative activity against human NCI-H661 cells measured after 24 hrs by MTT assay. It is filed as functional, cell-based.
Experiment [8] concerns NCI-H661. Kind of experiment: Antiproliferative activity against human NCI-H661 cells measured after 48 hrs by MTT assay. The conditions noted are these: for IC50: NCI-H661, 48 h. It is filed as functional, cell-based.
Experiment [9] deals with NCI-H661. Kind of experiment: Antiproliferative activity against human NCI-H661 cells measured after 72 hrs by MTT assay. It is filed as functional, cell-based.
Experiment [10] relates to A549. Kind of experiment: Antiproliferative activity against human A549 cells by MTT assay. It is filed as functional, cell-based. The note with it: time 24-72 hrs, TDE = time-dependent effect.
For experiment [11], the system named is NCI-H1299. The experiment in a line: Antiproliferative activity against human NCI-H1299 cells by MTT assay. It is filed as functional, cell-based. The conditions noted are these: time 24-72 hrs, TDE = time-dependent effect.
Experiment [12] concerns NCI-H661. Kind of experiment: Antiproliferative activity against human NCI-H661 cells by MTT assay. It counts as functional, cell-based. The note with it: time 24-72 hrs, TDE = time-dependent effect.
Experiment [13] deals with A549. Kind of experiment: Potentiation of cisplatin-induced cytotoxicity against human A549 cells assessed as combination index at 1:7 ratio of cisplatin to compound measured after 48 hrs by MTT assay. It is filed as functional.
In experiment [14] the test system is NCI-H1299. Kind of experiment: Potentiation of cisplatin-induced cytotoxicity against human NCI-H1299 cells assessed as combination index at 1:9 ratio of cisplatin to compound measured after 48 hrs by MTT assay. It counts as functional.
Experiment [15] concerns NCI-H661. Kind of experiment: Potentiation of cisplatin-induced cytotoxicity against human NCI-H661 cells assessed as combination index at 1:9 ratio of cisplatin to compound measured after 48 hrs by MTT assay. It counts as functional.
In experiment [16] the test system is A549. The experiment in a line: Potentiation of cisplatin-induced cytotoxicity against human A549 cells assessed as fold reduction in cisplatin IC50 at 1:7 ratio of cisplatin to compound measured after 48 hrs by MTT assay relative to cisplatin alone. It is filed as functional.
Experiment [17] concerns NCI-H1299. The experiment in a line: Potentiation of cisplatin-induced cytotoxicity against human NCI-H1299 cells assessed as fold reduction in cisplatin IC50 at 1:9 ratio of cisplatin to compound measured after 48 hrs by MTT assay relative to cisplatin alone. It is filed as functional.
The test system of experiment [18] is NCI-H661. Kind of experiment: Potentiation of cisplatin-induced cytotoxicity against human NCI-H661 cells assessed as fold reduction in cisplatin IC50 at 1:9 ratio of cisplatin to compound measured after 48 hrs by MTT assay relative to cisplatin alone. It counts as functional.
The test system of experiment [19] is A549. Kind of experiment: Potentiation of raloxifene-induced cytotoxicity against human A549 cells assessed as combination index at 1:4 ratio of raloxifene to compound measured after 48 hrs by MTT assay. It is filed as functional.
The test system of experiment [20] is NCI-H1299. The experiment in a line: Potentiation of raloxifene-induced cytotoxicity against human NCI-H1299 cells assessed as combination index at 1:5 ratio of raloxifene to compound measured after 48 hrs by MTT assay. It counts as functional.
Experiment [21] relates to NCI-H661. Kind of experiment: Potentiation of raloxifene-induced cytotoxicity against human NCI-H661 cells assessed as combination index at 1:5 ratio of raloxifene to compound measured after 48 hrs by MTT assay. It is filed as functional.
The subject of experiment [22] is A549. The experiment in a line: Potentiation of raloxifene-induced cytotoxicity against human A549 cells assessed as fold reduction in raloxifene IC50 at 1:4 ratio of raloxifene to compound measured after 48 hrs by MTT assay relative to raloxifene alone. It is filed as functional.
Experiment [23] deals with NCI-H1299. The experiment in a line: Potentiation of raloxifene-induced cytotoxicity against human NCI-H1299 cells assessed as fold reduction in raloxifene IC50 at 1:5 ratio of raloxifene to compound measured after 48 hrs by MTT assay relative to raloxifene alone. It is filed as functional.
For experiment [24], the system named is NCI-H661. Kind of experiment: Potentiation of raloxifene-induced cytotoxicity against human NCI-H661 cells assessed as fold reduction in raloxifene IC50 at 1:5 ratio of raloxifene to compound measured after 48 hrs by MTT assay relative to raloxifene alone. It is filed as functional.
The test system of experiment [25] is NCI-H1299. Kind of experiment: Antimigratory activity against human NCI-H1299 cells assessed as reduction in wound closure measured after 24 hrs by wound healing assay. It is filed as functional, cell-based.
Experiment [26] deals with A549. The experiment in a line: Inhibition of colony formation in human A549 cells assessed as reduction in number of colonies at 85 to 170 uM measured after 48 hrs by colony formation assay. It is filed as functional, cell-based. The conditions noted are these: dose 85-170 µM.
Experiment [27] has as its system A549. Kind of experiment: Inhibition of colony formation in human A549 cells assessed as reduction in size of colonies at 85 to 170 uM measured after 48 hrs by colony formation assay. It is filed as functional, cell-based. The note with it: dose 85-170 µM.
The test system of experiment [28] is A549. The experiment in a line: Induction of apoptosis in human A549 cells assessed as increase in apoptotic cells at 340 uM measured after 48 hrs by Annexin V-FITC/PI staining based flow cytometry relative to control. It is filed as functional. On the technique in general: A flow cytometer gives signals particle by particle.
Experiment [29] has as its system A549. Kind of experiment: Cell cycle arrest in human A549 cells assessed as increase in cell population at G0/G1 phase at 85 uM measured after 48 hrs by propidium iodide staining based flow cytometry. It is filed as functional.
Experiment [30] relates to A549. Kind of experiment: Reduction in PDE5 gene expression in human A549 cells at 0.1 IC50 measured after 48 hrs by qRT-PCR analysis. It counts as functional, cell-based. In general terms: Quantitative PCR measures a nucleic acid by following its amplification.
Experiment [31] concerns A549. Kind of experiment: Reduction in Bcl-2 gene expression in human A549 cells at 0.1 IC50 measured after 48 hrs by qRT-PCR analysis. It is filed as functional, cell-based.
The test system of experiment [32] is A549. Kind of experiment: Reduction in PDE5 protein expression in human A549 cells at 0.25 to 0.5 IC50 measured after 48 hrs by Western blot analysis. It counts as functional, cell-based.

On to `COc1ccc(CNc2nc(N3CCC[C@H]3CO)ncc2C(=O)NCc2ncccn2)cc1Cl` [AVANAFIL], for which the Activity entry in experiment [1], in experiment [2], in experiment [3], in experiment [4], in experiment [5] and in [6] was “Dose-Dependent Effect” in each case. Moreover, the Activity entry is “Dose-Dependent Effect” in [7]; “Dose-Dependent Effect” in experiment [8]; “Dose-Dependent Effect” in experiment [9]; “Tde” in [10]; “Tde” in experiment [11]; “Tde” in experiment [12]. The Activity result in experiment [25] was “Dose-Dependent Effect”; in [28], 44%; in [32], “Dose-Dependent Effect”. The IC50 came to 127 µM in experiment [1] (A549, 24 h); 170 µM in experiment [2]; 131 µM in experiment [3] (A549, 72 h); 162 µM in [4] (NCI-H1299, 24 h); 184 µM in experiment [5]; 169 µM in [6] (NCI-H1299, 72 h). For the same molecule, the concentration for half-maximal inhibition (IC50) in experiment [7] (NCI-H661, 24 h) was 264 µM; in experiment [8] it was 186 µM; in [9] (NCI-H661, 72 h), 78.5 µM. In addition, the CI in experiment [13] was found to be 0.95; in experiment [14], 0.69; in [15] it was 0.89; in [19], 0.99; in experiment [20] it was 0.73; in experiment [21], 0.9. Also, the “fold change (FC)” value in experiment [16] was 2.1; in experiment [17], 2.8; in experiment [18], 2.4; in [22] it was 1.9; in experiment [23], 3; in experiment [24], 2.7. The inhibition result in experiment [26] and in [27] was “Active” in each case. Further, the outcome in experiment [29], in [30] and in experiment [31] was Active.

For `O=C(c1ccc(OCCN2CCCCC2)cc1)c1c(-c2ccc(O)cc2)sc2cc(O)ccc12` [RALOXIFENE], the half-maximal inhibitory concentration (IC50) in experiment [2] was found to be 45.6 µM; in experiment [5] it was 45 µM; in experiment [8], 44.5 µM.

In general, IC50 refers to the concentration that inhibits the measured activity by half. Higher therefore signals lower potency.
